In patent US11161850B2, “Fused pyrazine derivatives as A2A / A2B inhibitors” (Incyte Corporation, priority 2018, dated 2021) one finds Ki and EC50 data, which are given here for 25 compounds.

One experiment concerns the target Adenosine A2A (Homo sapiens (Human), UniProt P29274). In words: A2A Tag-Lite HTRF assay. It counts as binding. An excerpt:
Example C. A2A Tag-Lite® HTRF Assay
(In general: Time-resolved FRET reads energy transfer from a long-lived donor to a nearby acceptor.)

Experiment [1] concerns the target human adenosine A2B receptor (Homo sapiens (Human), UniProt P29275). In words: Adenosine A2B Receptor Cyclic AMP GS Assay. The class given is cell-based. To be noted: HEK-293 cells expressing human A2B, agonist NECA 12 nM. In a few lines:
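Stably transfected HEK-293 cells were preincubated with compound for 30 min at room temperature, then stimulated with 12 nM NECA for 60 min. cAMP accumulation was read by FRET (665/620 ratio), and EC50 was fitted from percent of control versus log compound concentration.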

Setting [2] is: Tag-Lite Adenosine A2A labeled cells, fluorescent ligand 12.5 nM, read-out: A2A_Ki.
The mark [3] stands for this setting: read-out: A2A_Ki, Tag-Lite Adenosine A2A labeled cells, fluorescent ligand 12.5 nM.

Like-named read-outs stand apart in the source and are kept apart here. A value given as a limit tells only on which side of the number the result lay.

Chain of human adenosine A2B receptor (P29275 whole entry): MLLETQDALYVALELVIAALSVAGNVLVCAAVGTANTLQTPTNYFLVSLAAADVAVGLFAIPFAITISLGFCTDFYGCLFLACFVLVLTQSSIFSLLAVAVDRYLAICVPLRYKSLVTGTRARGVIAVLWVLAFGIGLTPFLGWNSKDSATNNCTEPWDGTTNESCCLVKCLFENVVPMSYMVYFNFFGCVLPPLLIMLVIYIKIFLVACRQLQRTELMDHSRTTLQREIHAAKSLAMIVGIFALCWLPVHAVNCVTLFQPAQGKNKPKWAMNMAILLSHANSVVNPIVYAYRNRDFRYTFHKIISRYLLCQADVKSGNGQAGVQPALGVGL
Chain of Adenosine A2A (P29274 whole entry): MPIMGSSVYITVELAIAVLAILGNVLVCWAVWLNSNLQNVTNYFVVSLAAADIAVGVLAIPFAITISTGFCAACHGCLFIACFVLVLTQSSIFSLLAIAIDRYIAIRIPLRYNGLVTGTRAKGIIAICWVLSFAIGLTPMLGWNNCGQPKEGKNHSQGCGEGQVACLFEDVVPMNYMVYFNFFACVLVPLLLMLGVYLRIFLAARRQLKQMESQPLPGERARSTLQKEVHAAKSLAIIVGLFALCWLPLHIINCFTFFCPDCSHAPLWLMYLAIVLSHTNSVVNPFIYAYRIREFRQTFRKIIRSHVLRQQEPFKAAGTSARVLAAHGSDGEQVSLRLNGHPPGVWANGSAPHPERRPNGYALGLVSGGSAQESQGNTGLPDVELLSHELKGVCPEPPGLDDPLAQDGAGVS

On to `CS(=O)(=O)CCn1cc(-c2cccc(F)c2Cc2nc3c(N)nc(-c4cccc(C#N)c4F)cn3n2)cn1` [Example 112, 3-(8-amino-2-(2-fluoro-6-(1-(2-(methylsulfonyl)ethyl)-1H-pyrazol-4-yl)benzyl)-[1,2,4]triazolo[1,5-a]pyrazin-6-yl)-2-fluorobenzonitrile], for which, on Adenosine A2A (setting [2]), the Ki was less than 10 nM. Further, the EC50 in experiment [1] (A2B_cAMP_EC50 (nM)) is less than 10 nM.

On to `[2H]C([2H])([2H])n1nc(-c2c(-c3cccc(C#N)c3)nc(N)c3nc(Cc4ccccn4)nn23)ccc1=O` [Example 127, 3-(8-amino-5-(1-(methyl-d3)-6-oxo-1,6-dihydropyridazin-3-yl)-2-(pyridin-2-ylmethyl)-[1,2,4]triazolo[1,5-a]pyrazin-6-yl)benzonitrile], for which the Ki on Adenosine A2A was less than 10 nM. The EC50 in experiment [1] (A2B_cAMP_EC50 (nM)) was less than 10 nM.

With `Cc1cnccc1-c1c(-c2cccc(C#N)c2)nc(N)c2nc(C(O)c3c(F)cccc3F)nn12` (single isomer, unassigned) [Example 109, 3-(8-amino-2-((2,6-difluorophenyl)(hydroxy)methyl)-5-(3-methylpyridin-4-yl)-[1,2,4]triazolo[1,5-a]pyrazin-6-yl)benzonitrile], the Ki on Adenosine A2A (setting [3]) is less than 10 nM. In addition, the EC50 in experiment [1] (read-out: A2B_cAMP_EC50) was less than 10 nM.

`N#Cc1cccc(-c2nc(N)c3cc(C(=O)N4CC(O)C4)nn3c2-c2ccncn2)c1` [Example 12, 3-(4-Amino-2-(3-hydroxyazetidine-1-carbonyl)-7-(pyrimidin-4-yl)pyrazolo[1,5-a]pyrazin-6-yl)benzonitrile]: on Adenosine A2A (setting [2]), the Ki is less than 10 nM. In experiment [1] (A2B_cAMP_EC50 (nM)), the EC50 lay within 10 to 100 nM.

For the compound `N#Cc1cccc(-c2nc(N)c3nc(Cc4ccccn4)nn3c2-c2ccncn2)c1` [Example 27, 3-(8-Amino-2-(pyridin-2-ylmethyl)-5-(pyrimidin-4-yl)-[1,2,4]triazolo[1,5-a]pyrazin-6-yl)benzonitrile], the Ki at Adenosine A2A (setting [2]) is less than 10 nM. In experiment [1] (A2B_cAMP_EC50 (nM)), this compound showed an EC50 of less than 10 nM.

The compound `CCOC(=O)Nc1nc2c(N)nc(-c3cccc(C#N)c3)cn2n1` [Example 14, Ethyl(8-amino-6-(3-cyanophenyl)-[1,2,4]triazolo[1,5-a]pyrazin-2-yl)carbamate] had a Ki on Adenosine A2A of 10 to 100 nM. The EC50 in experiment [1] (A2B_cAMP_EC50 (nM)) was greater than 1000 nM.

As for `CCCn1nccc1-c1c(-c2cccc(C#N)c2)nc(N)c2cc(C(=O)NCC)nn12` [Example 2, 4-Amino-6-(3-cyanophenyl)-N-ethyl-7-(1-propyl-1H-pyrazol-5-yl)pyrazolo[1,5-a]pyrazine-2-carboxamide], at Adenosine A2A (setting [2]), the Ki is less than 10 nM. The compound also yielded an EC50 in experiment [1] (A2B_cAMP_EC50 (nM)) of 10 to 100 nM.

In the case of `N#Cc1cccc(-c2cn3nc(Cc4ncccc4Nc4cnn(C5CCOCC5)c4)nc3c(N)n2)c1F` [Example 121, 3-(8-amino-2-((3-((1-(tetrahydro-2H-pyran-4-yl)-1H-pyrazol-4-yl)amino)pyridin-2-yl)methyl)-[1,2,4]triazolo[1,5-a]pyrazin-6-yl)-2-fluorobenzonitrile], the Ki at Adenosine A2A (setting [2]) was less than 10 nM. This compound returned an EC50 in experiment [1] (A2B_cAMP_EC50 (nM)) of 10 to 100 nM.

Consider `CN1CCC(NCc2cccc(F)c2Cc2nc3c(N)nc(-c4cccc(C#N)c4)c(-c4ccncn4)n3n2)C1=O` (centres unmarked) [Example 72, 3-(8-amino-2-(2-fluoro-6-(((1-methyl-2-oxopyrrolidin-3-yl)amino)methyl)benzyl)-5-(pyrimidin-4-yl)-[1,2,4]triazolo[1,5-a]pyrazin-6-yl)benzonitrile], for which the Ki at Adenosine A2A (setting [2]) is less than 10 nM. The compound further registered an EC50 in experiment [1] (A2B_cAMP_EC50 (nM)) of less than 10 nM.

Consider `CNC(c1nc2c(N)nc(-c3cccc(C#N)c3)c(-c3ocnc3C)n2n1)c1c(F)cccc1F` (centres unmarked) [Example 78, 3-(8-amino-2-((2,6-difluorophenyl)(methylamino)methyl)-5-(4-methyloxazol-5-yl)-[1,2,4]triazolo[1,5-a]pyrazin-6-yl)benzonitrile], for which the Ki at Adenosine A2A (setting [2]) is less than 10 nM. The EC50 in experiment [1] (A2B_cAMP_EC50 (nM)) was less than 10 nM.

On to `C[C@@]1(C(=O)O)CCN(Cc2cccc(F)c2Cc2nc3c(N)nc(-c4cccc(C#N)c4)c(-c4ccncn4)n3n2)C1` [Example 65, (R)-1-(2-((8-amino-6-(3-cyanophenyl)-5-(pyrimidin-4-yl)-[1,2,4]triazolo[1,5-a]pyrazin-2-yl)methyl)-3-fluorobenzyl)-3-methylpyrrolidine-3-carboxylic Acid], for which, on Adenosine A2A (setting [2]), the Ki was less than 10 nM. Besides, in experiment [1] (A2B_cAMP_EC50 (nM)), the EC50 fell in the range of 10 to 100 nM.

Consider `Cc1ncoc1-c1c(-c2cccc(C#N)c2)nc(N)c2nc(C(NCCO)c3c(F)cccc3F)nn12` (centres unmarked) [Example 79, 3-(8-amino-2-((2,6-difluorophenyl)((2-hydroxyethyl)amino)methyl)-5-(4-methyloxazol-5-yl)-[1,2,4]triazolo[1,5-a]pyrazin-6-yl)benzonitrile], for which the Ki on Adenosine A2A (setting [2]) is less than 10 nM. The compound further came in with an EC50 in experiment [1] (A2B_cAMP_EC50 (nM)) of less than 10 nM.

On to `N#Cc1cccc(-c2nc(N)c3cc(Cc4ccccc4F)nn3c2C#N)c1` [Example 20, 4-Amino-6-(3-cyanophenyl)-2-(2-fluorobenzyl)pyrazolo[1,5-a]pyrazine-7-carbonitrile], for which, at Adenosine A2A (setting [2]), the Ki was less than 10 nM. In experiment [1] (A2B_cAMP_EC50 (nM)), this compound displayed an EC50 of less than 10 nM.

Take `Cn1ncc(NCc2cccc(F)c2Cc2nc3c(N)nc(-c4cccc(C#N)c4)c(-c4ccncn4)n3n2)n1` [Example 74, 3-(8-amino-2-(2-fluoro-6-(((2-methyl-2H-1,2,3-triazol-4-yl)amino)methyl)benzyl)-5-(pyrimidin-4-yl)-[1,2,4]triazolo[1,5-a]pyrazin-6-yl)benzonitrile]: the Ki at Adenosine A2A (setting [2]) is less than 10 nM. Also, the EC50 in experiment [1] (A2B_cAMP_EC50 (nM)) was less than 10 nM.

For the compound `N#Cc1cccc(-c2nc(N)c3nc(C(O)c4c(F)cccc4F)nn3c2-c2ccncn2)c1` (single isomer, unassigned) [Example 50, 3-(8-Amino-2-((2,6-difluorophenyl)(hydroxy)methyl)-5-(pyrimidin-4-yl)-[1,2,4]triazolo[1,5-a]pyrazin-6-yl)benzonitrile], the Ki on Adenosine A2A (setting [3]) was less than 10 nM. Further, the EC50 in experiment [1] (read-out: A2B_cAMP_EC50) was less than 10 nM.

Turning to `N#Cc1cccc(-c2cn3nc(C(O)c4c(F)cccc4CN4CCN5C(=O)CCC5C4)nc3c(N)n2)c1F` (racemic) [Example 113, 3-(8-amino-2-((2-fluoro-6-((6-oxohexahydropyrrolo[1,2-a]pyrazin-2(1H)-yl)methyl)phenyl)(hydroxy)methyl)-[1,2,4]triazolo[1,5-a]pyrazin-6-yl)-2-fluorobenzonitrile], on Adenosine A2A (setting [2]), the Ki is less than 10 nM. This compound also had an EC50 in experiment [1] (A2B_cAMP_EC50 (nM)) of 10 to 100 nM.

Consider `CN[C@H]1C[C@H](n2cc(-c3cccc(F)c3Cc3nc4c(N)nc(-c5cccc(C#N)c5F)cn4n3)cn2)C1` [Example 116, 3-(8-amino-2-(2-fluoro-6-(1-((trans)-3-(methylamino)cyclobutyl)-1H-pyrazol-4-yl)benzyl)-[1,2,4]triazolo[1,5-a]pyrazin-6-yl)-2-fluorobenzonitrile], for which, on Adenosine A2A (setting [2]), the Ki is less than 10 nM. The compound also gave an EC50 in experiment [1] (A2B_cAMP_EC50 (nM)) of 10 to 100 nM.

Turning to `Cc1ncoc1-c1c(-c2cccc(C#N)c2)nc(N)c2nc(C(O)c3ccccn3)nn12` (racemic) [Example 40, 3-(8-Amino-2-(hydroxy(pyridin-2-yl)methyl)-5-(4-methyloxazol-5-yl)-[1,2,4]triazolo[1,5-a]pyrazin-6-yl)benzonitrile], the Ki at Adenosine A2A (setting [2]) was less than 10 nM. Further, the EC50 in experiment [1] (A2B_cAMP_EC50 (nM)) was less than 10 nM.

Regarding `N#Cc1cccc(-c2nc(N)c3nc(Cc4c(F)cccc4CN[C@H]4C[C@@H](C(=O)O)C4)nn3c2-c2ccncn2)c1` [Example 71, (1S,3S)-3-((2-((8-amino-6-(3-cyanophenyl)-5-(pyrimidin-4-yl)-[1,2,4]triazolo[1,5-a]pyrazin-2-yl)methyl)-3-fluorobenzyl)amino)cyclobutane-1-carboxylic Acid], at Adenosine A2A (setting [2]), the Ki is less than 10 nM. The compound also came in with an EC50 in experiment [1] (A2B_cAMP_EC50 (nM)) of less than 10 nM.

Regarding `N#Cc1cccc(-c2nc(N)c3cc(Cc4c[nH]c5cccnc45)nn3c2-c2ccncn2)c1` [Example 96, 3-(2-((1H-pyrrolo[3,2-b]pyridin-3-yl)methyl)-4-amino-7-(pyrimidin-4-yl)pyrazolo[1,5-a]pyrazin-6-yl)benzonitrile], the Ki at Adenosine A2A (setting [2]) was less than 10 nM. This compound came in with an EC50 in experiment [1] (A2B_cAMP_EC50 (nM)) of 10 to 100 nM.

As to `N#Cc1cccc(-c2nc(N)c3nc(Cc4cccc5ccnn45)nn3c2-c2ccncn2)c1` [Example 46, 3-(8-Amino-2-(pyrazolo[1,5-a]pyridin-7-ylmethyl)-5-(pyrimidin-4-yl)-[1,2,4]triazolo[1,5-a]pyrazin-6-yl)benzonitrile], on Adenosine A2A (setting [2]), the Ki was less than 10 nM. The same compound returned an EC50 in experiment [1] (A2B_cAMP_EC50 (nM)) of less than 10 nM.

Consider `N#Cc1cccc(-c2cn3nc(Cc4ccccc4F)c(C#N)c3c(N)n2)c1` [Example 21, 4-Amino-6-(3-cyanophenyl)-2-(2-fluorobenzyl)pyrazolo[1,5-a]pyrazine-3-carbonitrile], for which the Ki at Adenosine A2A (setting [2]) was less than 10 nM. The EC50 in experiment [1] (A2B_cAMP_EC50 (nM)) lay within 100 to 1000 nM.

Consider `N#Cc1cccc(-c2nc(N)c3nc(Cn4ncc5ccccc54)nn3c2-c2ccncn2)c1` [Example 48, 3-(2-((1H-Indazol-1-yl)methyl)-8-amino-5-(pyrimidin-4-yl)-[1,2,4]triazolo[1,5-a]pyrazin-6-yl)benzonitrile], for which the Ki on Adenosine A2A (setting [2]) is less than 10 nM. In experiment [1] (A2B_cAMP_EC50 (nM)), this compound gave an EC50 of 10 to 100 nM.

The compound `CCn1nccc1-c1c(-c2cccc(C#N)c2)nc(N)c2nc(C(O)c3c(F)cccc3F)nn12` (single isomer, unassigned) [Example 92, 3-(8-amino-2-((2,6-difluorophenyl)(hydroxy)methyl)-5-(1-ethyl-1H-pyrazol-5-yl)-[1,2,4]triazolo[1,5-a]pyrazin-6-yl)benzonitrile] yielded a Ki at Adenosine A2A of less than 10 nM. This compound also registered an EC50 in experiment [1] (A2B_cAMP_EC50 (nM)) of less than 10 nM.

For the compound `Cc1n[nH]cc1-c1c(-c2cccc(C#N)c2)nc(N)c2nc(C(O)c3c(F)cccc3F)nn12` (single isomer, unassigned) [Example 102, 3-(8-amino-2-((2,6-difluorophenyl)(hydroxy)methyl)-5-(3-methyl-1H-pyrazol-4-yl)-[1,2,4]triazolo[1,5-a]pyrazin-6-yl)benzonitrile], the Ki at Adenosine A2A is less than 10 nM. This compound also returned an EC50 in experiment [1] (A2B_cAMP_EC50 (nM)) of less than 10 nM.
